# Tests used:
# Assay type in all cases: cell-based
# [1] = tested on: human HS68, murine NIH 3T3 fibroblasts or cos cells; assay: Cellular localization of Pep-2; conditions: standard cell culture conditions; same at 4° C. or with okadaic acid
# Description: The rationale in the design of the novel peptide vector, Pep-2, for efficient protein delivery into cells was to satisfy two major requirements: the ability to cross cell membranes and high affinity for protein sequences. To this aim, we elaborated a 21 residue peptide, designated Pep-2 ([…]-cya; SEQ ID NO:7), consisting of three domains: (1) a hydrophobic Trp-rich motif containing five Trp-residues (KETWWETWWTEW (SEQ ID NO:32)), required for efficient targeting to the cell membrane and for forming hydrophobic interactions with proteins, (2) a hydrophilic Lys-rich domain (KKKRKV (SEQ ID NO:33)) derived from the NLS of SV40 large T antigen, required to improve intracellular delivery and solubility of the peptide vector, and (3) a spacer domain (Ser-Gln-Pro), separating the two domains mentioned above, containing a Pro residue, which improves the flexibility and the integrity of both the hydrophobic and the hydrophilic domains. Peptides were acetylated at their N-terminus and synthesized with a cysteamine group at their C-terminus, so as to enable coupling of fluorescent probes (for example, FITC), useful for cellular localization of the peptide. We first investigated the ability of Pep-2 to penetrate into cells and characterized its subcellular localization. […]
# [2] = tested on: human fibroblastic cell line (HS-68) and Cos-7; assay: Pep-2-mediated delivery of FITC-labeled peptides into cells
# Description: (A) Pep-2-mediated delivery of Pep-A at 37 degrees C., (B) Pep-2-mediated delivery of Pep-B at 37 degrees C., (C) Pep-2-mediated delivery of Pep-A at 4 degrees C., (D) concentration dependence of Pep-2-mediated delivery of Pep-A. The efficiency of transfection was determined by counting fluorescent cells. Experiments were performed in the presence (dark bars) or absence (open bars) of serum and at 4 degrees C. (dashed bars).
# We next evaluated the ability of Pep-2 to deliver peptides and LMW and HMW proteins into a human fibroblastic cell line (HS-68) and Cos-7. FITC-labeled Pep-A (51-mer) and Pep-B (32-mer) at a concentration of 5 10^−8 M were incubated with different concentrations of Pep-2 from 5 10^−8 M (ratio 1/1) to 2 10^−6 M (ratio 40/1), in serum-free cell culture medium for 30 minutes at 37° C. Cultured cells 0.5 to 1×10^6/35 mm^2 were then overlaid with the preformed Pep-2/peptide complexes for 30 minutes in the presence or absence of FCS. Complexes were formed prior to addition of FCS to avoid interactions between Pep-2 and serum proteins. Following this transfection step, fresh DMEM supplemented with serum was added to the cells for another 30 minutes, after which cells were extensively washed, and examined by fluorescence microscopy. […] Finally, we evaluated the effect of serum in the cell culture medium on the efficiency of peptide transfection.
# [3] = tested on: human fibroblastic cell line (HS-68) and Cos-7; assay: Pep-2-mediated delivery of GFP and β-Gal proteins into cells
# Description: The efficiency of transfection was determined by counting fluorescent cells or blue stained cells. (A) Control of beta gal in the absence of Pep-2, (B) Pep-2 delivery of beta gal at 37 degrees C., (C) Pep-2 delivery of beta gal at 4 degrees C., (D) Pep-2 delivery of GFP at 37 degrees C. (E) concentration dependent Pep-2 delivery of GFP. Experiments were performed in the absence (open bars) or presence (dark bars) of serum.
# We next evaluated the ability of Pep-2 to deliver peptides and LMW and HMW proteins into a human fibroblastic cell line (HS-68) and Cos-7. FITC-labeled Pep-A (51-mer) and Pep-B (32-mer) at a concentration of 5 10^−8 M were incubated with different concentrations of Pep-2 from 5 10^−8 M (ratio 1/1) to 2 10^−6 M (ratio 40/1), in serum-free cell culture medium for 30 minutes at 37° C. Cultured cells 0.5 to 1×10^6/35 mm^2 were then overlaid with the preformed Pep-2/peptide complexes for 30 minutes in the presence or absence of FCS. Complexes were formed prior to addition of FCS to avoid interactions between Pep-2 and serum proteins. Following this transfection step, fresh DMEM supplemented with serum was added to the cells for another 30 minutes, after which cells were extensively washed, and examined by fluorescence microscopy. […] Conversely, we observed a large decrease in the efficiency of transfection at a ratio greater than 30/1, which may be explained by either precipitation or aggregation of Pep-2/peptide complexes to the cell membrane. […] Finally, we evaluated the effect of serum in the cell culture medium on the efficiency of peptide transfection.
# To investigate protein delivery we chose to monitor cell delivery of three very different types of proteins: 30 kDa GFP, 119 kDa β-Gal, and specific antibodies. […] Cells were then extensively washed prior to observation and the efficiency of protein delivery was determined by counting fluorescent cells or by monitoring enzymatic β-galactosidase activity by X-Gal staining. […]
# [4] = tested on: HS-68 and NIH 3T3 cell lines; assay: Drug delivery by vector peptides (ANS and Bis-ANS); conditions: transfection of ANS and Bis-ANS; incubated with peptide at a molar ratio of 1:20; 1 h
# Description: For investigation of drug delivery, we used the naphthalene derivatives ANS and Bis-ANS, which have intrinsic fluorescence. The drugs was incubated with peptide at a molar ratio of 1:20, followed by overlay of the complex onto cultured cells. This was followed by incubation for 1 h. Then cells were extensively washed and observed by microscopy.
# (§1) The results of the experiments testing the transfection properties of the peptides are presented as a table in which the sequences are aligned for optimal comparison: […]
# [5] = tested on: HS-68 and NIH 3T3 cell lines; assay: Protein delivery by vector peptides (GFP); conditions: transfection of GFP; incubated with peptide at a molar ratio of 1:20; 1 h
# Description: (§2) We evaluated the ability of peptides designed according to principles described herein, as well as variants thereof, to deliver peptides and proteins into HS-68 and NIH 3T3 cell lines. Peptide delivery was performed with a 32 mer peptide (peptide B), and in some cases a […] peptide (peptide A). The peptides were fluorescently labeled. Peptides (5.0×10^−8M or 5.0×10^−7M) were incubated with one micromolar vector peptide in cell culture medium in the absence of serum for 30 min. Cultured cells (0.5 to 1.0×10^6) were then overlaid with the preformed peptide/vector peptide complexes in 500 μL DMEM for one hour in the presence or absence of FCS. Complexes were formed prior to addition of FCS to avoid interactions between ep-vector and serum proteins. Following this transfection step, fresh DMEM supplemented with serum was added for another hour. Then cells were extensively washed, fixed and analyzed by fluorescence microscopy.
# To investigate protein delivery we tested the delivery into cells of the fluorescent protein GFP. The protein was incubated with peptide at a molar ratio of 1:20, followed by overlay of the complex onto cultured cells. This was followed by incubation for 1 h. Then cells were extensively washed and fixed with formalin before observation.
# as §1
# [6] = tested on: HS-68 and NIH 3T3 cell lines; assay: Peptide delivery by vector peptides (fluorescently labeled peptide B / peptide A); conditions: transfection of fluorescently labeled peptide; one micromolar vector peptide; 1 h
# Description: as §2, §1
# Jurkat T and WI 38 cells = assay: Pep-2 delivery of p27(kip1), cell cycle arrest in G1 (FACS, BrDu); conditions: Pep-2 alone
# Description: The number of cells in the G1 phase was determined by BrDU incorporation.
# The number of cells in the G1 phase was determined by FACs analysis.
# p27(kip1) was expressed in E coli, and purified as a his-tagged protein. Pep-2/p27kip1 complexes were formed in PBS (500 μl of DMEM containing 50 nM of protein and 0.1 μM of Pep-2) and incubated for 30 min at 37° C. Jurkat T and WI 38 cells grown to 75% confluency were then overlaid with these preformed complexes. After 1 hr incubation at 37° C., fresh DMEM supplemented with 10% foetal calf serum was added to the cells, without removing the overlay of Pep-2/p27^Kip1, and cells were returned to the incubator for another 30 h. Experiments were performed on both non-synchronized and synchronized cells. The number of cells arrested in G1 was determined both by FACS analysis and BrDu incorporation.
sequence,measurement,setting,value
KETWWETWWTEWSQPKKKRKV [Pep-2],subcellular localization,[1],nucleus
same,effect of serum (FCS 10%) on efficiency of peptide delivery,[2],not affected
same,cells with internalized fluorescent peptide localized to the nucleus,[2]; Pep-2/Pep-A molar ratio of 20/1,more than 90%
same,effect of 10% FCS on efficiency of protein delivery,[3],not affected
same,cells containing fluorescent GFP staining in their cytoplasm,[3]; 37 degrees C.,more than 80%
same,cells exhibiting strong and uniform β-Gal activity,[3]; X-Gal staining,All cells
same,Drug,[4],5%
same,Pro,[5],5%
same,Pep,[6],5%
same,effect on cell cycle progression,Jurkat T and WI 38 cells,no effect on cell cycle progression
